Assay results from patent US20200181284A1, “EPIGENETIC INHIBITORS FOR SENSITIZING HEMATOLOGIC OR OTHER MALIGNANCIES TO GLUCOCORTICOID THERAPY” (UNIVERSITY OF SOUTHERN CALIFORNIA, priority 2017, published 2020).

Legend:
[1] = target: T1, endogenous G9a and GLP (Homo sapiens, UniProt Q96KQ7+Q9H9B1); assay: Methylation of endogenous G9a and GLP in A549 cells; type: cell-based; conditions: 2 μM, 24 h
T1 construct: highlight methylation of endogenous G9a and GLP in A549 cells; endogenous in cells; host or cells: A549
Procedure: (§1) Cos-7 or A549 cells were seeded on 10-cm dishes the day before transfection. Cells were transiently transfected (where indicated) using Lipofectamine 2000 (Invitrogen) with 5 μg each of the indicated plasmids according to the manufacturer's protocol. At 48 h after transfection, cells were treated (or not) with dex for the indicated time period, and cell extracts were prepared in RIPA buffer (50 mM Tris-HCl, pH 8, 150 mM NaCl, 1 mM EDTA, 1% NP-40 and 0.25% deoxycholate) supplemented with protease inhibitor tablets (Roche Molecular Biochemicals) and phosphatase inhibitors (1 mM NaF, 1 mM Na3VO4 and 1 mM β-glycerophosphate). Protein extracts were incubated with 1 μg of the indicated primary antibodies overnight at 4° C. with shaking. Protein A/G Plus Agarose (Santa Cruz sc-2003) beads were added and the mixture was incubated 2 hr at 4° C. The immunoprecipitates were separated on SDS-PAGE. […] In immunoprecipitation experiments 3% of the input of each sample was analyzed by immunoblot using the antibodies listed.
The results as shown in FIGS. 24E-1 and 24E-2 highlight methylation of endogenous G9a and GLP in A549 cells. […] Western-Blot quantification was determined relative to input using ChemiDoc MP (Biorad) to measure chemiluminescence from the immunoblots, and the ratio of the IP signal to the input signal was calculated for each sample.

[2] = target: T2, hG9a (Homo sapiens, UniProt Q96KQ7); assay: Methylation of HA-hG9a in Cos-7 cells (pan met-K immunoprecipitation/immunoblot); type: cell-based, African green monkey; conditions: Cos-7 cells, 2 μM inhibitor, 24 h
T2 construct: transfected with a plasmid encoding full length HA-hG9a and treated with 2 μM UNC0646; expressed in transfected cells; host or cells: Cos-7
T2 sequence (Q96KQ7 1-1210): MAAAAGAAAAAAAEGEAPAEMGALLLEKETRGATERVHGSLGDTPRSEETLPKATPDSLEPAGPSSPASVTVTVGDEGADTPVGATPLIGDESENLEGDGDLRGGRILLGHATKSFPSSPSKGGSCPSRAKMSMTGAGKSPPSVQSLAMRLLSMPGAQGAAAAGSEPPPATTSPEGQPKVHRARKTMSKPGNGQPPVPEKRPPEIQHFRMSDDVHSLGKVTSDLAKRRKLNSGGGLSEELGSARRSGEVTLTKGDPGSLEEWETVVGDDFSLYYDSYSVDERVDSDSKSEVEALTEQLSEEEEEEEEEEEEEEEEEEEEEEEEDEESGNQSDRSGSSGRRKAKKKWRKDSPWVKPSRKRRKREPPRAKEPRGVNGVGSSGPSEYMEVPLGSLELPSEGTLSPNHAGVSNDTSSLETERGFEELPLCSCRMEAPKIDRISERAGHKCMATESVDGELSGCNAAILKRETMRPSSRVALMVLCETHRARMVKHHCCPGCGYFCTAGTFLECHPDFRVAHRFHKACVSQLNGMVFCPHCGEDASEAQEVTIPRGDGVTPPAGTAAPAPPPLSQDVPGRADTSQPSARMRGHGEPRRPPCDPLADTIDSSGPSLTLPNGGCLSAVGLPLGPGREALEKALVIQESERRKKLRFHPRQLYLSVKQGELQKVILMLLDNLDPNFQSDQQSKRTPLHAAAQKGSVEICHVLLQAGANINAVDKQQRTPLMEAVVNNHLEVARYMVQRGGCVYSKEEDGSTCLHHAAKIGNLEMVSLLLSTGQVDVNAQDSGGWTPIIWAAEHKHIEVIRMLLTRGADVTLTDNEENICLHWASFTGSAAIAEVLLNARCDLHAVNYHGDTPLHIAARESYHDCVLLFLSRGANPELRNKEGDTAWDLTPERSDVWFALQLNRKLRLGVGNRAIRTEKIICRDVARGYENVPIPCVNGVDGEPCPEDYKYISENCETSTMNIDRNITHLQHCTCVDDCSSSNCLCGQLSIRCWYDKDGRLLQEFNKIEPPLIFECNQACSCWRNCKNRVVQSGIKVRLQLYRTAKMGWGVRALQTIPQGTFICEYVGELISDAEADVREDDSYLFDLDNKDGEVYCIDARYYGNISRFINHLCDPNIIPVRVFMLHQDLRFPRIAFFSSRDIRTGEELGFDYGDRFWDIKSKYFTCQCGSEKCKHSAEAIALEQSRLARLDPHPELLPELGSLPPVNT
Procedure: (§2) Cells were transiently transfected (where indicated) using Lipofectamine 2000 (Invitrogen) with 5 μg each of the indicated plasmids according to the manufacturer's protocol. […] Protein extracts were incubated with 1 μg of the indicated primary antibodies overnight at 4° C. with shaking. Protein A/G Plus Agarose (Santa Cruz sc-2003) beads were added and the mixture was incubated 2 hr at 4° C. The immunoprecipitates were separated on SDS-PAGE. Immunoblotting was conducted with primary antibodies against HA epitope (3F10 Roche Applied Science); G9a (G6919), FLAG (F1804), (3-actin (A5441), or GAPDH (G9545) from Sigma; aurora kinase B (ab2254), HP1γ (ab10480), HP1γ (ab56978), phospho-593-HP1γ (ab45270) or pan methyllysine (ab23366) from Abcam; GR (sc-8992) from Santa Cruz; GLP (09-078), or pan phospho-threonine (AB1607) from Millipore; phospho-S211-GR (#4161), H3K9me3 (#13969), H3S10ph (#53348), Histone H3 (#4499) from Cell signaling; or E-cadherin (610182) from BD transduction laboratories. Secondary antibodies from Santa Cruz Biotechnology (anti-rat) and Promega (anti-rabbit and anti-mouse) were used for chemiluminescence detection using Super Signal West Dura (Thermo Scientific) for proteins with low expression levels and ECL prime detection reagent (Amersham) for all other proteins according to the manufacturers' instructions. In immunoprecipitation experiments 3% of the input of each sample was analyzed by immunoblot using the antibodies listed.
(§3) Lysates were immunoprecipitated (IP) with pan met-K antibody and immunoblotted with HA antibody (top), or the usage of the two antibodies was reversed (bottom). Expression of HA-tagged proteins and β-actin (loading control) in the unfractionated extracts is shown at the bottom (Input). For FIG. 17D, Cos-7 cells were transfected with a plasmid encoding full length HA-hG9a and treated with 2 μM UNC0646 or vehicle DMSO for 24 h. Lysates were immunoprecipitated with pan met-K antibody and immunoblotted with HA antibody (top), or the usage of the two antibodies was reversed (bottom).
(§4) Lysates were immunoprecipitated with pan met-K antibody and immunoblotted with HA antibody (top).

[3] = target: T3, hG9a (Homo sapiens, UniProt Q96KQ7); assay: as above; type: cell-based, African green monkey; conditions: Cos-7 cells expressing HA-hG9a N, 2 μM, 24 h
T3 construct: transfected with a plasmid encoding full length HA-hG9a and treated with 2 μM UNC0646; expressed in transfected cells; host or cells: Cos-7
Procedure: as §2, §3, §4

[4] = tested on: interaction between HP1γ and G9a; assay: Co-immunoprecipitation of HA-hG9a with HP1γ in Cos-7 cells; type: cell-based, African green monkey; conditions: 2 μM, 24 h
Procedure: as §1, with “listed. […]” for “listed.”

[5] = tested on: G9a and GLP phosphorylation; assay: Phosphorylation of HA-hG9a or HA-hGLP in Cos-7 cells (pan ph-T immunoprecipitation); type: cell-based, monkey; conditions: 2 μM, 24 h
Procedure: as §1, with “listed. […]” for “listed.”

Compound: COc1cc2c(NC3CCN(C4CCCCC4)CC3)nc(N3CCCN(C(C)C)CC3)nc2cc1OCCCN1CCCCC1 [UNC0646]
- endogenous level of G9a and GLP [1]: increased
- proportion of G9a and GLP that was methylated [1]: decreased substantially
- pan-methyllysine antibody signal on wild type hG9a [2]: strongly decreased
- methylation of the N-terminal G9a fragment [3]: decreased

Compound: COc1cc2c(Nc3ccc(NC(=O)c4ccccc4)cc3)ncnc2cc1OCCCN1CCOCC1 [ZM447439, N-[4-[[6-methoxy-7-(3-morpholin-4-ylpropoxy)quinazolin-4-yl]amino]phenyl]benzamide]
- interaction between HP1γ and G9a [4]: increased
- G9a and GLP phosphorylation signals [5]: decreased
